Test results reported in patent publication US20250129430A1, “HIGH ATP-AFFINITY PROTEIN AS THERAPEUTIC TARGET FOR INTRACTABLE CANCER MOLECULAR SUBTYPES AND INHIBITOR THEREOF” (VeraVerse Co., Ltd., priority 2021, published 2025).

Assays:
Test in all cases: Cell viability drug screen, 12-point dose-response AUC
Type in all cases: cell-based, human
FU97 = test system: FU97; set-up: Average Area Under the Viability Curve (AUC), AUC norm value: scale not given here; conditions: FU97 cells; 72 hours
Protocol: (§1) Cells cultured for cell-based drug assay were inoculated into a 96-well white optical plate (Corning) at 5×10^3 cells per well. After 24 hours after inoculation, a 2.5 MJT (primary screen) or a half-log 12-serial diluent (secondary screen) of the pharmacological compound contained in DMSO is added to the cells with a robot using a BioMek FXp liquid processor (Beckman) to add to the cells at 50 mM. The final drug concentration in the 5 ns range and the DMSO specification control (0.5%) were calculated. The cells were then further incubated at 37° C. in a 5% CO2 incubator for 72 hours prior to measuring cell viability using the extra-GLO assay kit (Promega). The luminescent properties were measured after 15 min incubation at room temperature using a plate stacker equipped with a plate stacker. The normalized viability for the DMSO-based control was measured to generate a cell line-specific 12-point dose-response curve for each pharmacological compound, and then the area under the curve (AUC) was calculated using a trapezoidal method.

NCI_N87 = NCI_N87 cells; 72 hours
Protocol: (§2) An FDA-approved small-molecule pharmacological compound (#L1300) and an anticancer compound for research (#L2000) were purchased from Selecckchem and a 10 mM solution was prepared in DMSO. A total of 1,345 compounds were tested the cell viability of the seven EMT gastric cancer cell lines.
as §1, with “method. […] The results of the repeated experiments were averaged to generate AUC values for each cell line for each compound.” for “method.”

MKN28 = MKN28 cells; 72 hours
Protocol: as §2
as §1, with “method. […] The results of the repeated experiments were averaged to generate AUC values for each cell line for each compound.” for “method.”

AGS = AGS cells (non-SEM subtype); 72 hours
Protocol: as §2
as §1, with “method. […] The results of the repeated experiments were averaged to generate AUC values for each cell line for each compound.” for “method.”

NCC19 = NCC19 cells; 72 hours
Protocol: as §2
as §1, with “method. […] The results of the repeated experiments were averaged to generate AUC values for each cell line for each compound.” for “method.”

SNU484 = SNU484 cells (SEM subtype); 72 hours
Protocol: as §2
as §1, with “method. […] The results of the repeated experiments were averaged to generate AUC values for each cell line for each compound.” for “method.”

SNU1 = SNU1 cells; 72 hours
Protocol: as §2
as §1, with “method. […] The results of the repeated experiments were averaged to generate AUC values for each cell line for each compound.” for “method.”

SNU668 = SNU668 cells (SEM subtype); 72 hours
Protocol: as §2
as §1, with “method. […] The results of the repeated experiments were averaged to generate AUC values for each cell line for each compound.” for “method.”

KATO3 = KATO3 cells; 72 hours
Protocol: as §2
as §1, with “method. […] The results of the repeated experiments were averaged to generate AUC values for each cell line for each compound.” for “method.”

YCC11 = YCC11 cells (SEM subtype); 72 hours
Protocol: as §2
as §1, with “method. […] The results of the repeated experiments were averaged to generate AUC values for each cell line for each compound.” for “method.”

OCUM1 = OCUM1 cells; 72 hours
Protocol: as §2
as §1, with “method. […] The results of the repeated experiments were averaged to generate AUC values for each cell line for each compound.” for “method.”

SNU719 = SNU719 cells; 72 hours
Protocol: as §2
as §1, with “method. […] The results of the repeated experiments were averaged to generate AUC values for each cell line for each compound.” for “method.”

NCC24 = NCC24 cells; 72 hours
Protocol: as §2
as §1, with “method. […] The results of the repeated experiments were averaged to generate AUC values for each cell line for each compound.” for “method.”

SNU16 = SNU16 cells; 72 hours
Protocol: as §2
as §1, with “method. […] The results of the repeated experiments were averaged to generate AUC values for each cell line for each compound.” for “method.”

SNU601 = SNU601 cells; 72 hours
Protocol: as §2
as §1, with “method. […] The results of the repeated experiments were averaged to generate AUC values for each cell line for each compound.” for “method.”

MKN74 = MKN74 cells; 72 hours
Protocol: as §2
as §1, with “method. […] The results of the repeated experiments were averaged to generate AUC values for each cell line for each compound.” for “method.”

SK4 = SK4 cells (SEM subtype); 72 hours
Protocol: as §2
as §1, with “method. […] The results of the repeated experiments were averaged to generate AUC values for each cell line for each compound.” for “method.”

SNU216 = SNU216 cells (non-SEM subtype); 72 hours
Protocol: as §2
as §1, with “method. […] The results of the repeated experiments were averaged to generate AUC values for each cell line for each compound.” for “method.”

MKN45 = MKN45 cells (non-SEM subtype); 72 hours
Protocol: as §2
as §1, with “method. […] The results of the repeated experiments were averaged to generate AUC values for each cell line for each compound.” for “method.”

MKN1 = MKN1 cells; 72 hours
Protocol: as §2
as §1, with “method. […] The results of the repeated experiments were averaged to generate AUC values for each cell line for each compound.” for “method.”

YCC3 = YCC3 cells; 72 hours
Protocol: as §2
as §1, with “method. […] The results of the repeated experiments were averaged to generate AUC values for each cell line for each compound.” for “method.”

YCC2 = YCC2 cells; 72 hours
Protocol: as §2
as §1, with “method. […] The results of the repeated experiments were averaged to generate AUC values for each cell line for each compound.” for “method.”

NCC59 = NCC59 cells; 72 hours
Protocol: as §2
as §1, with “method. […] The results of the repeated experiments were averaged to generate AUC values for each cell line for each compound.” for “method.”

SNU638 = SNU638 cells; 72 hours
Protocol: as §2
as §1, with “method. […] The results of the repeated experiments were averaged to generate AUC values for each cell line for each compound.” for “method.”

SNU620 = SNU620 cells; 72 hours
Protocol: as §2
as §1, with “method. […] The results of the repeated experiments were averaged to generate AUC values for each cell line for each compound.” for “method.”

NCC20 = NCC20 cells; 72 hours
Protocol: as §2
as §1, with “method. […] The results of the repeated experiments were averaged to generate AUC values for each cell line for each compound.” for “method.”

Hs746T = Hs746T cells (SEM subtype); 72 hours
Protocol: as §2
as §1, with “method. […] The results of the repeated experiments were averaged to generate AUC values for each cell line for each compound.” for “method.”

SNU1750 = SNU1750 cells (SEM subtype); 72 hours
Protocol: as §2
as §1, with “method. […] The results of the repeated experiments were averaged to generate AUC values for each cell line for each compound.” for “method.”

SNU1967 = SNU1967 cells; 72 hours
Protocol: as §2
as §1, with “method. […] The results of the repeated experiments were averaged to generate AUC values for each cell line for each compound.” for “method.”

| SMILES | Average Area Under the Viability Curve (AUC), AUC norm value (NCI_N87) | Average Area Under the Viability Curve (AUC), AUC norm value (MKN28) | Average Area Under the Viability Curve (AUC), AUC norm value (AGS) | Average Area Under the Viability Curve (AUC), AUC norm value (NCC19) | Average Area Under the Viability Curve (AUC), AUC norm value (SNU484) | Average Area Under the Viability Curve (AUC), AUC norm value (SNU1) | Average Area Under the Viability Curve (AUC), AUC norm value (SNU668) | Average Area Under the Viability Curve (AUC), AUC norm value (KATO3) | Average Area Under the Viability Curve (AUC), AUC norm value (YCC11) | Average Area Under the Viability Curve (AUC), AUC norm value (OCUM1) | Average Area Under the Viability Curve (AUC), AUC norm value (SNU719) | Average Area Under the Viability Curve (AUC), AUC norm value (NCC24) | Average Area Under the Viability Curve (AUC), AUC norm value (SNU16) | Average Area Under the Viability Curve (AUC), AUC norm value (SNU601) | Average Area Under the Viability Curve (AUC), AUC norm value (MKN74) | Average Area Under the Viability Curve (AUC), AUC norm value (SK4) | Average Area Under the Viability Curve (AUC), AUC norm value (SNU216) | Average Area Under the Viability Curve (AUC), AUC norm value (MKN45) | Average Area Under the Viability Curve (AUC), AUC norm value (MKN1) | Average Area Under the Viability Curve (AUC), AUC norm value (YCC3) | also measured |
| --- | --- | --- | --- | --- | --- | --- | --- | --- | --- | --- | --- | --- | --- | --- | --- | --- | --- | --- | --- | --- | --- |
| O=C(/C=C/c1cccnc1)NCCCCC1CCN(C(=O)c2ccccc2)CC1 [APO866 (FK866), APO866] | 0.8343 | −6.855 | 0 | −4.01 | −6.823 | 0.9726 | −3.304 | 1.553 | −2.215 | 0.949 | 1.275 | −0.07585 | −4.562 | 4.976 | −6.53 | 0.7403 | −5.897 | 0.6191 | −5.502 | 1.423 | Average Area Under the Viability Curve (AUC), AUC norm value (FU97): −3.149; Average Area Under the Viability Curve (AUC), AUC norm value (YCC2): 1.331; Average Area Under the Viability Curve (AUC), AUC norm value (NCC59): 0.7919; Average Area Under the Viability Curve (AUC), AUC norm value (SNU638): 0.6032; Average Area Under the Viability Curve (AUC), AUC norm value (SNU620): 0.3488; Average Area Under the Viability Curve (AUC), AUC norm value (NCC20): 2.35; Average Area Under the Viability Curve (AUC), AUC norm value (Hs746T): −4.382; Average Area Under the Viability Curve (AUC), AUC norm value (SNU1750): −3.767; Average Area Under the Viability Curve (AUC), AUC norm value (SNU1967): −3.653 |
| O=C(Nc1c[nH]nc1-c1nc2ccc(CN3CCOCC3)cc2[nH]1)NC1CC1 [AT9283] | 0.1418 | −1.903 | −0.9303 | 2.247 | −1.872 | −3.743 | 0.6968 | 0.5115 | −1.467 | 0 | 3.019 | −0.6909 | −3.809 | 1.648 | 0.4728 | −0.4441 | 0.5323 | −0.1996 | −2.315 | 0.6619 | Average Area Under the Viability Curve (AUC), AUC norm value (YCC2): 0.07527; Average Area Under the Viability Curve (AUC), AUC norm value (NCC59): 0.5882; Average Area Under the Viability Curve (AUC), AUC norm value (SNU638): −0.01142; Average Area Under the Viability Curve (AUC), AUC norm value (SNU620): −4.059; Average Area Under the Viability Curve (AUC), AUC norm value (NCC20): −2.941; Average Area Under the Viability Curve (AUC), AUC norm value (Hs746T): 0.9084; Average Area Under the Viability Curve (AUC), AUC norm value (SNU1750): −1.7502; Average Area Under the Viability Curve (AUC), AUC norm value (SNU1967): −0.1244 |
| Cc1ccc(C(=O)N(CCCN)[C@@H](c2nc3cc(Cl)ccc3c(=O)n2Cc2ccccc2)C(C)C)cc1 [Ispinesib (SB-715992), Ispinesib] | −0.0052 | −1.956 | −2.131 | 1.111 | −0.9509 | −1.68 | 0.1001 | 2.999 | −1.381 | 1.297 | 2.542 | −0.8348 | −1.935 | −1.371 | 0 | −0.8267 | 1.801 | 1.833 | −1.178 | 2.007 | Average Area Under the Viability Curve (AUC), AUC norm value (YCC2): 0.7987; Average Area Under the Viability Curve (AUC), AUC norm value (NCC59): 2.6543; Average Area Under the Viability Curve (AUC), AUC norm value (SNU638): −0.203; Average Area Under the Viability Curve (AUC), AUC norm value (SNU620): −1.255; Average Area Under the Viability Curve (AUC), AUC norm value (NCC20): −0.9939; Average Area Under the Viability Curve (AUC), AUC norm value (Hs746T): 1.046; Average Area Under the Viability Curve (AUC), AUC norm value (SNU1750): 0.2265; Average Area Under the Viability Curve (AUC), AUC norm value (SNU1967): 1.562 |
